Experimental findings from PMC8396878, “Ether Oxidation by an Evolved Fungal Heme-Peroxygenase: Insights into Substrate Recognition and Reactivity” (Journal of Fungi, 2021) are described below.

Common to all, as to assay type: biochemical
Assay [1] deals with T1, unspecific peroxygenase (UPO) PaDa-I (Cyclocybe aegerita, UniProt B9W4V6, F354L/I291V/L110F/V100A/V118I).
T1 construct: gene APO1; laboratory-evolved variant PaDa-I, heterologously expressed and purified
T1 sequence (B9W4V6 44-371 V100A/L110F/V118I/I291V/F354L): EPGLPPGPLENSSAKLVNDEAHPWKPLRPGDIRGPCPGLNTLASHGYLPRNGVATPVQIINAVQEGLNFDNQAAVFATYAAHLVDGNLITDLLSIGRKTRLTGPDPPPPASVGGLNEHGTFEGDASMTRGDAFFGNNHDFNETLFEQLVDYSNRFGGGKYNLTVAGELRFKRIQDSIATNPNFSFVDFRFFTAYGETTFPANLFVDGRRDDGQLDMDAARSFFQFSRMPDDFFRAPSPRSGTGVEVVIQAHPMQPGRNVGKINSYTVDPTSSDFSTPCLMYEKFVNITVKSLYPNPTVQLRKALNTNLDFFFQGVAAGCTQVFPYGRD
Nature of the assay: inhibition of catalase activity (O2 production, Clark electrode); substrate consumption by HPLC.

Assay [2] addresses T2, unspecific peroxygenase (UPO) PaDa-I (Cyclocybe aegerita, UniProt B9W4V6, V100A/L110F/V118I/I291V/F354L).
T2 construct: gene APO1; laboratory-evolved variant PaDa-I, heterologously expressed and purified
T2 sequence (B9W4V6 44-371 V100A/L110F/V118I/I291V/F354L): T1 sequence (B9W4V6 44-371 V100A/L110F/V118I/I291V/F354L)
Nature of the assay: colorimetric peroxygenation assay (4-nitrocatechol production), Michaelis-Menten plot.

The target of assay [3] is T2, unspecific peroxygenase (UPO) PaDa-I. The experiment in a line: H2O2-dependent ether oxidation, total turnover number by HPLC.
Assay [4] has as its target T1, unspecific peroxygenase (UPO) PaDa-I. Nature of the assay: inhibition of NBD peroxygenation (Michaelis-Menten kinetics); also uncompetitive inhibition of ABTS peroxidation.

In general, Ki refers to the equilibrium dissociation constant of an inhibitor or competing ligand from its target. Compound `OCCOCc1ccccc1` [2-(benzyloxy)ethanol] showed a Ki in assay [1] of 390 µM.
Turning to `O=[N+]([O-])c1ccc2c(c1)OCO2` [NBD, 5-nitro-1,3-benzodioxole], the “colorimetric peroxygenation assay (4-nitrocatechol production), Michaelis-Menten” value in assay [2] was “Michaelis–Menten plots for (A) NBD peroxygenation and (B) ABTS peroxidation in the presence of benzyloxyacetate”.
In the case of `c1ccc(COCc2ccccc2)cc1` [dibenzylether], the “H2O2-dependent ether oxidation, total turnover number by HPLC” value in assay [3] is on record as “the more hydrophobic substrate (dibenzylether) was the most efficiently converted”.
In assay [4], `O=C(O)COCc1ccccc1` [benzyloxyacetate] had a Ki of 3450 µM.
